Measurements taken from US11999746B2, “Compounds” (GlaxoSmithKline Intellectual Property Development Limited, priority 2014, dated 2024).
Counter-ions that a name gives are not always drawn.

Experiments:
[1] = target: T1, Lp-PLA2 in human plasma (Homo sapiens, UniProt Q13093); assay: (3b) Lp-PLA2 human plasma alternative Thio-PAF assay; assay type: biochemical; conditions: (3b) alternative Thio-PAF assay, pooled human plasma; Examples of 266-412 were tested here; read-out: pIC50 in the Lp-PLA2 human plasma assay (converted)
T1 construct: from tissue; host or cells: pooled human plasma
T1 sequence (Q13093 22-441): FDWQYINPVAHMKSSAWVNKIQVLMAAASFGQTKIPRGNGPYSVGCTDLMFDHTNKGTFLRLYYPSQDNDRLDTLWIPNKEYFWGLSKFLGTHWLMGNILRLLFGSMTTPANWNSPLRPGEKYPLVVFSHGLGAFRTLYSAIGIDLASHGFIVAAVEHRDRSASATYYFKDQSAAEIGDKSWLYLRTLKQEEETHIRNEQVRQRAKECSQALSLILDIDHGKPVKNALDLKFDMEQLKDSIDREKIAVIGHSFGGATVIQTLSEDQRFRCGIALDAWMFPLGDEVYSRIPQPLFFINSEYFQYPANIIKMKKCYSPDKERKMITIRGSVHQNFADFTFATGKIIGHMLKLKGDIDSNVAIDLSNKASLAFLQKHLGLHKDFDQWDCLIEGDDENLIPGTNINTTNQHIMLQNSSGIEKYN
Method: (3b) Alternative Thio-PAF Assay
The human plasma assay utilizes the same thioester analog of PAF as described in (1b) “hr ThioPAF” assay. This assay may detect the activity of Lp-PLA2 in human plasma, as determined by specific inhibition by Lp-PLA2 inhibitors.
The thio-PAF assay was run as a quenched 20 μL assay. Compounds source plate was prepared by making 1:3 (by volume) serial dilution of the compounds into pure DMSO on 96-well microplate. 5 μL of compounds on compound source plate were transferred to 96-well Corning 3686 (black) low-volume plates by STAR+(Hamilton) liquid dispenser. 10 μL pooled human plasma, which was previously aliquoted and frozen, was added. Plates were centrifuged for 30 sec at 1000 rpm. After 15 minutes preincubation at room temperature, 5 μL of substrate solution comprising 2 mM 2-thio-PAF [from ethanol stock], 52 μM CPM [from a DMSO stock] and 2.5 mM NEM (N-ethylmaleimide) [made fresh daily in DMSO] in assay buffer (50 mM HEPES, pH 7.4, 150 mM NaCl, 1 mM CHAPS) was added to 96-well Corning 3686 (black) low-volume plates. After 3 mins, reaction was quenched with 10 μL of 5% aqueous trifluoroacetic acid (TFA). Plates were centrifuged 30 sec at 1000 rpm, covered to protect from light and incubated for 10 min at room temperature. Plates were read at ex: 380 nm/em: 485 nm using Envision plate reader (Perkin Elmer). Raw data were transferred to Excel software and pIC50 data, curve and QC analysis was conducted by using XL fit module in Excel.

[2] = target: T2, recombinant human Lp-PLA2 (Homo sapiens, UniProt Q13093); assay: (1b) hrThioPAF assay, recombinant human Lp-PLA2; assay type: biochemical; conditions: Examples 266-412 were tested here, one experiment or average of multiple experiments, read-out: rhLp-PLA2 (pIC50) (converted)
T2 sequence (Q13093 22-441): T1 sequence (Q13093 22-441)
Text: 1-O-Hexadecyl-2-deoxy-2-thio-S-acetyl-sn-glyceryl-3-phosphorylcholine (2-thio-PAF) is a substrate for PAF-hydrolases (PAF-AH) commercially available from Cayman Chemical. Upon cleavage with PAF-AH, the free thiol is released at the sn-2 position and can then react with 7-diethylamino-3-(4′-maleimidylphenyl)-4-methylcoumarin (CPM) a thiol-reactive coumarin. This reaction (Michael addition) results in an increase in fluorescence. Inhibitors of Lp-PLA2 therefore prevent this cleavage and no fluorescent increase is observed.
The Thio-PAF assay was run as an unquenched 20 μL assay. The source plate containing the compounds to be tested was prepared by making 1:3 (by volume) serial dilution of the compounds within DMSO on 384-well microplate. Then, 5 μL of the compounds on compound source plate were transferred into 384 well Greiner 784076 (black) plates using STAR+(Hamilton) liquid dispenser. 10 μL of recombinant human Lp-PLA2 enzyme (20 pM rhLp-PLA2 in assay buffer of 50 mM HEPES, pH 7.4, 150 mM NaCl, 1 mM CHAPS) was added to each well of the plate. 5 μL of substrate comprising 40 μM 2-thio-PAF [from ethanol stock], 40 μM CPM [from a DMSO stock] and 400 μM NEM (N-ethylmaleimide) [made fresh daily in DMSO] in assay buffer (50 mM HEPES, pH 7.4, 150 mM NaCl, 1 mM CHAPS) was added to 384 well Greiner 784076 black plates. Plates were vortexed for 10 sec. The plate was covered to protect it from light and incubated for 20 min at 25° C. The plates were read for fluorescence intensity at ex: 380 nm/em: 485 nm using Envision plate reader (Perkin Elmer). Raw data were transferred to Excel software and pIC50 data, curve and QC analysis was conducted by using XL fit module in Excel.

Row | SMILES | IC50 [1] [µM] | IC50 [2] [µM]
1 | N#Cc1cccc(COc2cc3n(c(=O)n2)CC2CNCCN32)c1 (centres unmarked) [Example E272, 3-(((9-Oxo-2,3,4,9,11,11a-hexahydro-1H-pyrazino[1′,2′:3,4]imidazo [1,2-c]pyrimidin-7-yl)oxy)methyl) benzonitrile] | ≤ 0.1 | ≤ 10
2 | CC(C)C(=O)N1CCN2c3cc(OCc4ccc(F)c(C#N)c4)nc(=O)n3CC2C1 (centres unmarked) [Example E290, 2-Fluoro-5-(((2-isobutyryl-9-oxo-2,3,4,9,11,11a-hexahydro-1H-pyrazino[1′,2′:3,4]imidazo[1,2-c]pyrimidin-7-yl)oxy)methyl)benzonitrile 2,2,2-trifluoroacetate] | ≤ 0.1 | ≤ 10
3 | N#Cc1cc(COc2cc3n(c(=O)n2)CC2COCCN32)ccc1F (centres unmarked) [Example E329, 2-Fluoro-5-(((9-oxo-1,3,4,9,11,11a-hexahydropyrimido[6′,1′:2,3]imidazo[5,1-c][1,4]oxazin-7-yl)oxy)methyl)benzonitrile] | ≤ 0.1 | ≤ 10
4 | CC(C)(N)CC(=O)N1CCN2c3cc(OCc4ccc(F)c(C#N)c4)nc(=O)n3CC2C1 (centres unmarked) [Example E298, 5-(((2-(3-Amino-3-methylbutanoyl)-9-oxo-2,3,4,9,11,11a-hexahydro-1H-pyrazino[1′,2′:3,4]imidazo[1,2-c]pyrimidin-7-yl)oxy)methyl)-2-fluorobenzonitrile 2,2,2-trifluoroacetate] | ≤ 0.1 | ≤ 10
5 | N#Cc1cc(CNc2cc3n(c(=O)n2)CC2CNCCN32)ccc1F (centres unmarked) [Example E319, 2-Fluoro-5-(((9-oxo-2,3,4,9,11,11a-hexahydro-1H-pyrazino[1′,2′:3,4]imidazo[1,2-c]pyrimidin-7-yl)amino)methyl)benzonitrile hydrochloride] | – | ≤ 10
6 | O=c1nc(OCc2cccc(F)c2F)cc2n1CC1CNCCN21 (centres unmarked) [Example E268, 7-((2,3-Difluorobenzyl)oxy)-3,4,11,11a-tetrahydro-1H-pyrazino[1′,2′:3,4] imidazo [1,2-c]pyrimidin-9(2H)-one] | – | ≤ 10
7 | O=C1CN2c3cc(OCc4cccc(F)c4F)nc(=O)n3CC2CN1 (centres unmarked) [Example E348, 7-((2,3-Difluorobenzyl)oxy)-11,11a-dihydro-1H-pyrazino[1′,2′:3,4]imidazo[1,2-c]pyrimidine-3,9(2H,4H)-dione] | – | ≤ 10
8 | CCOC(=O)C(C)N1CCN2c3cc(OCc4ccc(F)c(F)c4)nc(=O)n3CC2C1 (single isomer, unassigned) [Example E327, Ethyl 2-(7-((3,4-difluorobenzyl)oxy)-9-oxo-3,4,11,11a-tetrahydro-1H-pyrazino[1′,2′:3,4]imidazo[1,2-c]pyrimidin-2(9H)-yl)propanoate] | ≤ 0.1 | –
9 | O=c1nc(OCc2ccc(Cl)c(Br)c2)cc2n1CC1CNCCN21 (centres unmarked) [Example E275, 7-((3-Bromo-4-chlorobenzyl)oxy)-3,4,11,11a-tetrahydro-1H-pyrazino[1′,2′:3,4] imidazo [1,2-c]pyrimidin-9(2H)-one] | – | ≤ 10
10 | COc1ccc(COc2cc3n(c(=O)n2)CC2CNCCN32)cc1C#N (centres unmarked) [Example E278, 2-Methoxy-5-(((9-oxo-2,3,4,9,11,11a-hexahydro-1H-pyrazino[1′,2′:3,4]imidazo [1,2-c]pyrimidin-7-yl)oxy)methyl) benzonitrile] | – | ≤ 10
11 | CC(=O)N1CCN2c3cc(NCc4ccc(F)c(C#N)c4)nc(=O)n3CC2C1 (centres unmarked) [Example E314, 5-(((2-Acetyl-9-oxo-2,3,4,9,11,11a-hexahydro-1H-pyrazino[1′,2′:3,4]imidazo[1,2-c]pyrimidin-7-yl)amino)methyl)-2-fluorobenzonitrile] | – | ≤ 10
12 | Cc1ccc(COc2cc3n(c(=O)n2)CC2CNCCN32)cc1C#N (centres unmarked) [Example E271, 2-Methyl-5-(((9-oxo-2,3,4,9,11,11a-hexahydro-1H-pyrazino[1′,2′:3,4]imidazo [1,2-c]pyrimidin-7-yl)oxy)methyl) benzonitrile] | – | ≤ 10
13 | CS(=O)(=O)N1CCN2c3cc(NCc4ccc(F)c(F)c4)nc(=O)n3CC2C1 (centres unmarked) [Example E309, 7-((3,4-Difluorobenzyl)amino)-2-(methylsulfonyl)-3,4,11,11a-tetrahydro-1H-pyrazino[1′,2′:3,4]imidazo[1,2-c]pyrimidin-9(2H)-one] | – | ≤ 10
14 | O=c1nc(OCc2ccc(F)c(F)c2)cc2n1CC1(CCN(S(=O)(=O)C3CC3)CC1)N2 [Example 410, 1′-(Cyclopropylsulfonyl)-7-((3,4-difluorobenzyl)oxy)-1H-spiro[imidazo[1,2-c]pyrimidine-2,4′-piperidin]-5(3H)-one] | – | ≤ 0.001

More lines, now with the values ahead:

Row | IC50 [1] [µM] | IC50 [2] [µM] | SMILES
15 | ≤ 0.1 | ≤ 0.001 | O=C1CN2c3cc(OCc4cc(F)c(Oc5ccnc(C(F)(F)F)c5)c(F)c4)nc(=O)n3CC2CN1 (centres unmarked) [Example E351, 7-((3,5-Difluoro-4-((2-(trifluoromethyl)pyridin-4-yl)oxy)benzyl)oxy)-11,11a-dihydro-1H-pyrazino[1′,2′:3,4]imidazo[1,2-c]pyrimidine-3,9(2H,4H)-dione]
16 | – | ≤ 10 | N#Cc1cc(COc2ccc(COc3cc4n(c(=O)n3)CC3CSCCN43)cc2C#N)ccc1F (centres unmarked) [Example E365, 5-((2-Cyano-4-(((9-oxo-1,3,4,9,11,11a-hexahydropyrimido[6′,1′:2,3]imidazo[5,1-c][1,4]thiazin-7-yl)oxy)methyl)phenoxy)methyl)-2-fluorobenzonitrile]
17 | – | ≤ 10 | N#Cc1cc(CNc2cc3n(c(=O)n2)CC2CNC(=O)CN32)ccc1F (centres unmarked) [Example E354, 5-(((3,9-dioxo-2,3,4,9,11,11a-hexahydro-1H-pyrazino[1′,2′:3,4]imidazo[1,2-c]pyrimidin-7-yl)amino)methyl)-2-fluorobenzonitrile, trifluoroacetic acid salt]
18 | – | ≤ 10 | O=c1nc(NCc2ccc(F)c(F)c2)cc2n1CC1C[S+]([O-])CCN21 (centres unmarked) [Example E375, 7-((3,4-Difluorobenzyl)amino)-3,4,11,11a-tetrahydropyrimido[6′,1′:2,3]imidazo[5,1-c][1,4]thiazin-9(1H)-one 2-oxide]
19 | – | ≤ 10 | O=c1nc(OCc2cccc(F)c2F)cc2n1CC1CSCCN21 (centres unmarked) [Example E361, 7-((2,3-Difluorobenzyl)oxy)-3,4,11,11a-tetrahydropyrimido[6′,1′:2,3]imidazo[5,1-c][1,4] thiazin-9(1H)-one]
20 | – | ≤ 10 | Cc1ccc(Oc2c(F)cc(COc3cc4n(c(=O)n3)C[C@@H]3C[C@H](O)CN43)cc2F)cn1 [Example E385, (7S,8aS)-3-((3,5-Difluoro-4-((6-methylpyridin-3-yl)oxy)benzyl)oxy)-7-hydroxy-7,8,8a,9-tetrahydropyrrolo[1′,2′:3,4]imidazo[1,2-c]pyrimidin-1(6H)-one]
21 | – | ≤ 10 | N#Cc1cc(COc2ccc(COc3cc4n(c(=O)n3)CC3CNC(=O)CN43)cc2C#N)ccc1F (centres unmarked) [Example E350, 5-((2-cyano-4-(((3,9-dioxo-2,3,4,9,11,11a-hexahydro-1H-pyrazino[1′,2′:3,4]imidazo[1,2-c]pyrimidin-7-yl)oxy)methyl)phenoxy)methyl)-2-fluorobenzonitrile]
